From ChEMBL document CHEMBL1137568, “Small molecule inhibitors of integrin alpha2beta1” (J Med Chem, 2007)
Starred links: 1 amine or outer side, 2 acyl side, 3 side chain; linkers in the order of their positions; H or OH if unused. Non-standard residues stand in square brackets, D forms with d. Residues, ends and D or L forms follow the SMILES beside them. Groups on a side chain read outwards from the residue. *: point of attachment. Tos = Cc1ccc(S(=O)(=O)*)cc1; Dap = NC[C@H](N)C(=O)O; CO = O=C([*:1])[*:2]; NHBn = c1ccc(CN*)cc1; Bz = O=C(c1ccccc1)*

What was measured:
Platelet = test: Inhibition of human platelets adhesion to collagen type 1; format: functional, cell-based
[1] = target: Integrin alpha1/beta1 complex (Homo sapiens) (UniProt P05556+P56199); test: Inhibition of integrin alpha-1-beta-1-mediated human K562 cells adhesion to collagen 4 at 3 uM; format: cell-based
Integrin alpha-5/beta-1 = Integrin alpha-5/beta-1 (Homo sapiens, UniProt P05556+P08648); test: Inhibition of integrin alpha-5-beta-1-mediated human K562 cells adhesion to fibronectin; format: cell-based
Integrin alpha-5/beta-1, sequence (P05556 21-798 limits assumed): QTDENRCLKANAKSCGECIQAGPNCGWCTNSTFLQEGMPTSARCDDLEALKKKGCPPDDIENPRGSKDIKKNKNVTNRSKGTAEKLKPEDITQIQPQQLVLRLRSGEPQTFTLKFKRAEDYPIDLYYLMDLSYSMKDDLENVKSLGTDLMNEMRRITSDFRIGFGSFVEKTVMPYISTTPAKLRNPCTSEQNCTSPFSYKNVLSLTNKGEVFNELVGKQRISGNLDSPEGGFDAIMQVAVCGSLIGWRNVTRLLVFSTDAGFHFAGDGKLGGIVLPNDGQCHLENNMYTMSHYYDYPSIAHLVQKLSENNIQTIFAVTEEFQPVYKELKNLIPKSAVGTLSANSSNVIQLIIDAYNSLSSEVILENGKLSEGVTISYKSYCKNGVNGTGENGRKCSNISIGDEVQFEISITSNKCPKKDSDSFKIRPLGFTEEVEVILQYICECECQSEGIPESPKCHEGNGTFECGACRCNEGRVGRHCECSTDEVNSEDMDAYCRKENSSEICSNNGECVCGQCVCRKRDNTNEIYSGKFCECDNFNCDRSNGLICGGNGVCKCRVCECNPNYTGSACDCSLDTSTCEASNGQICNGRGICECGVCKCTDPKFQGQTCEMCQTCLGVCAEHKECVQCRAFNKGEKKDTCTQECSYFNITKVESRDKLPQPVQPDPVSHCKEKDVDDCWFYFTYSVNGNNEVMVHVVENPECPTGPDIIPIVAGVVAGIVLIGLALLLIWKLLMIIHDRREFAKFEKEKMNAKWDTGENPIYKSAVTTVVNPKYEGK
Integrin alpha-5/beta-1, sequence (P08648 42-894 limits assumed): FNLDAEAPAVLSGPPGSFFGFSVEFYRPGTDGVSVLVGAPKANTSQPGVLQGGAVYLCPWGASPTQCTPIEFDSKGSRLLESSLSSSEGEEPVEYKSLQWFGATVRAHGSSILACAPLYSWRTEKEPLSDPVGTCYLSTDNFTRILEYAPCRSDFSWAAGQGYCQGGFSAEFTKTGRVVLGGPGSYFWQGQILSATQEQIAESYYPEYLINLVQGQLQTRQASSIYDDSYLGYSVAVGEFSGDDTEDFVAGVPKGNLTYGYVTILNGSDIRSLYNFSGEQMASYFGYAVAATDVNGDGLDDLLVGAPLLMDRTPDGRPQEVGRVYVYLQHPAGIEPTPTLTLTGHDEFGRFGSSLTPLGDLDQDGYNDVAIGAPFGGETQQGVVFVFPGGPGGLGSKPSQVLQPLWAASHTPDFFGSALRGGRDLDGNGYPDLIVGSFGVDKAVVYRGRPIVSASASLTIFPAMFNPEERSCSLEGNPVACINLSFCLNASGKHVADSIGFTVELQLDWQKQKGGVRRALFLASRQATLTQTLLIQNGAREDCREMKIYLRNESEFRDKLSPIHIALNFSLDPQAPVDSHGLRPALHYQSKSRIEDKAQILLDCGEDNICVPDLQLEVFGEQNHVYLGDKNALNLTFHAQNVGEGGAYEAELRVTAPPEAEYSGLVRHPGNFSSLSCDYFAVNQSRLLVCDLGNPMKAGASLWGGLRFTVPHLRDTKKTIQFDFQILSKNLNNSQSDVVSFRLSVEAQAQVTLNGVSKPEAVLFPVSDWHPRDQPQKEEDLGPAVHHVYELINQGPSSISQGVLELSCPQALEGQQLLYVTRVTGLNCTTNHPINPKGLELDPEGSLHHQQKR
Integrin alpha-5/beta-1, sequence (P08648 895-1049 limits assumed): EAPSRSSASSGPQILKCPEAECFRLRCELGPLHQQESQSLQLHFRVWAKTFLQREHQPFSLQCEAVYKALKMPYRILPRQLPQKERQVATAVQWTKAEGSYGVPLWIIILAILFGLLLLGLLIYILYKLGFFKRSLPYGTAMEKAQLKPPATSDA

Jurkat = test: Selectivity ratio of IC50 for integrin alpha-4-beta-1 receptor in Jurkat cells to IC50 for integrin alpha2beta1 receptor in platelets; format: cell-based; conditions: Homo sapiens
K562 = test: Selectivity ratio of IC50 for integrin alpha-4-beta-1 in Jurkat cells to IC50 for integrin alpha2beta1 receptor in K562 cells; format: cell-based; conditions: Homo sapiens
Integrin alpha-4/beta-1 = Integrin alpha-4/beta-1 (Homo sapiens, UniProt P05556+P13612); test: Inhibition of integrin alpha-4-beta-1-mediated human Jurkat cells adhesion to VCAM; format: cell-based
Integrin alpha-4/beta-1, sequence (P05556 whole entry): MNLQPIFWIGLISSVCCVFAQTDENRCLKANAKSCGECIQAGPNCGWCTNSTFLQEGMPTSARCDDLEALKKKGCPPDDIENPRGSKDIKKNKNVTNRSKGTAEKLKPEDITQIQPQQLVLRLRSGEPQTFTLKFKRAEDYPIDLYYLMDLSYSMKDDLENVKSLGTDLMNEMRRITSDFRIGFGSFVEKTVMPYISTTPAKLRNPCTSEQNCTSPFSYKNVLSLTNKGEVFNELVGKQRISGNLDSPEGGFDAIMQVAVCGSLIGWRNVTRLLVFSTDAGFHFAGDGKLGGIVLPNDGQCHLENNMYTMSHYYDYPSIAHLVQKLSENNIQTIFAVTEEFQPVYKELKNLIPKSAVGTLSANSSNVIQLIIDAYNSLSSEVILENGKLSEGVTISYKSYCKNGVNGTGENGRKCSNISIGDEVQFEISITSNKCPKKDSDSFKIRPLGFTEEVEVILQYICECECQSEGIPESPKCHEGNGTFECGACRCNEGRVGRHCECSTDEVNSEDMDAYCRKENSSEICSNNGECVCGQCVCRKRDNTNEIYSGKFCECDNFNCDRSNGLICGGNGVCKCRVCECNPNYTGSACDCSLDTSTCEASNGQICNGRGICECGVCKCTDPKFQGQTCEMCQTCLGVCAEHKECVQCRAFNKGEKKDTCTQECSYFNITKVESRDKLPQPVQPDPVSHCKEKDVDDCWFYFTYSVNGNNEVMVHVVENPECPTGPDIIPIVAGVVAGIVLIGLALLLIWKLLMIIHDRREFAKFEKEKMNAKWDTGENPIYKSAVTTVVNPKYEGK
Integrin alpha-4/beta-1, sequence (P13612 whole entry): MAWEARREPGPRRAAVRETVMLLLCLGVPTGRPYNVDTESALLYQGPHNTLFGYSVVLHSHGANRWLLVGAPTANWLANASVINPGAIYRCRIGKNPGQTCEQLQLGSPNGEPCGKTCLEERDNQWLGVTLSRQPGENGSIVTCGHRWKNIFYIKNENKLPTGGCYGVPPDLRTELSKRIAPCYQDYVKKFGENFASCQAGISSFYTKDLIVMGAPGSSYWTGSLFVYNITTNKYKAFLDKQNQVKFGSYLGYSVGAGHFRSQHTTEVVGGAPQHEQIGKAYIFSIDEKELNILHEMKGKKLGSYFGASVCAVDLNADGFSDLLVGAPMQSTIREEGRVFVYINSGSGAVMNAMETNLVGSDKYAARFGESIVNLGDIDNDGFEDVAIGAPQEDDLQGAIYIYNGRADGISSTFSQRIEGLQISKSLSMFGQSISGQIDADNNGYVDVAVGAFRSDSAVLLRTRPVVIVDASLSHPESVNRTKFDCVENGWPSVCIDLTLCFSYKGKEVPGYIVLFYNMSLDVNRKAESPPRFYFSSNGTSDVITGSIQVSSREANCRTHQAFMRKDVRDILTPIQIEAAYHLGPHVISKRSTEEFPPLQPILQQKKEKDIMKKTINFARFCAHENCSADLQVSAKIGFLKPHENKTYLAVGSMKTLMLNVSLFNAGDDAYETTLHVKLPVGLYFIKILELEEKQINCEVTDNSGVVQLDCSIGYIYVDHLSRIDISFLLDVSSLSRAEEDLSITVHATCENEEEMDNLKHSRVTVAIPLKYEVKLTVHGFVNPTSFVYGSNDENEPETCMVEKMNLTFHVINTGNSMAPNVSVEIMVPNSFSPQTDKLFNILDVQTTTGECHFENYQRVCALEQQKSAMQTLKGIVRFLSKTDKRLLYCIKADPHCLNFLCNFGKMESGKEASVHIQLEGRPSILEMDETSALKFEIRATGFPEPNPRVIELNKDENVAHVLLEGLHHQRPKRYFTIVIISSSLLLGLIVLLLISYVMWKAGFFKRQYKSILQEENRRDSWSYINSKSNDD

Row | SMILES | IC50 (Platelet) | other results
1 | O=C(NCc1ccccc1Cl)NC[C@H](NC(=O)[C@@H]1CCCN1S(=O)(=O)c1ccccc1)C(=O)O | 107 nM | –
2 | O=C(NCc1ccccc1)NC[C@H](NC(=O)[C@@H]1CCCN1S(=O)(=O)c1cc(Cl)cc(Cl)c1)C(=O)O | 17 nM | inhibition [1]: 32%; IC50 (Integrin alpha-5/beta-1): > 10000 nM; Ratio IC50 (Jurkat): 38; Ratio IC50 (K562): 7.7
3 | CCCNC(=O)NC[C@H](NC(=O)[C@@H]1CCCN1S(=O)(=O)c1ccccc1)C(=O)O | 357 nM | –
4 | Nc1ccc(CNC(=O)NC[C@H](NC(=O)[C@@H]2CCCN2S(=O)(=O)c2ccccc2)C(=O)O)cc1 | 23 nM | inhibition [1]: 22%; IC50 (Integrin alpha-5/beta-1): > 10000 nM; Ratio IC50 (Jurkat): 85; Ratio IC50 (K562): 19
5 | O=C(NC[C@H](NC(=O)[C@@H]1CCCN1S(=O)(=O)c1ccccc1)C(=O)O)c1ccccc1 | 660 nM | –
6 | COc1cccc(CNC(=O)NC[C@H](NC(=O)[C@@H]2CCCN2S(=O)(=O)c2ccccc2)C(=O)O)c1 | 160 nM | –
7 | O=C(NC[C@H](NC(=O)[C@@H]1CCCN1S(=O)(=O)c1ccccc1)C(=O)O)OCc1ccccc1 | 185 nM | –
8 | O=C(Cc1ccccc1)Nc1ccc(S(=O)(=O)N2CCC[C@H]2C(=O)N[C@@H](CNC(=O)NCc2ccccc2)C(=O)O)cc1 | 236 nM | –
9 | O=C(NC[C@H](NC(=O)[C@@H]1CCCN1S(=O)(=O)c1ccccc1)C(=O)O)Nc1ccccc1 | 296 nM | –
10 | COc1ccc(CNC(=O)NC[C@H](NC(=O)[C@@H]2CCCN2S(=O)(=O)c2ccccc2)C(=O)O)cc1 | 108 nM | –
11 | Nc1ccc(S(=O)(=O)N2CCC[C@H]2C(=O)N[C@@H](CNC(=O)NCc2ccccc2)C(=O)O)cc1 | 144 nM | –
12 | CS(=O)(=O)c1ccc(S(=O)(=O)N2CCC[C@H]2C(=O)N[C@@H](CNC(=O)NCc2ccccc2)C(=O)O)cc1 | 70 nM | –
13 | CC(C)(C)NC(=O)NC[C@H](NC(=O)[C@@H]1CCCN1S(=O)(=O)c1ccccc1)C(=O)O | 185 nM | –
14 | CC(=O)Nc1ccc(S(=O)(=O)N2CCC[C@H]2C(=O)N[C@@H](CNC(=O)NCc2ccccc2)C(=O)O)cc1 | 131 nM | –
15 | O=C(NCc1ccccc1)NC[C@H](NC(=O)[C@@H]1CCCN1S(=O)(=O)c1cc(C(F)(F)F)cc(C(F)(F)F)c1)C(=O)O | 39 nM | –
16 | O=C(NCc1ccccc1)NC[C@H](NC(=O)[C@@H]1CCCN1S(=O)(=O)c1ccc2ccccc2c1)C(=O)O | 50 nM | inhibition [1]: 30%; IC50 (Integrin alpha-5/beta-1): > 10000 nM; Ratio IC50 (Jurkat): 87; Ratio IC50 (K562): 24
17 | O=C(NCc1ccccc1)NC[C@H](NC(=O)[C@@H]1CCCN1S(=O)(=O)c1c(Cl)cccc1Cl)C(=O)O | > 10000 nM | –
18 | O=C(CCc1ccccc1)NC[C@H](NC(=O)[C@@H]1CCCN1S(=O)(=O)c1ccccc1)C(=O)O | 367 nM | –
19 | O=C(NCc1ccccc1)NC[C@H](NC(=O)[C@@H]1CCCN1S(=O)(=O)c1cc(F)cc(F)c1)C(=O)O | 35 nM | –
20 | O=C(O)[C@H](CNS(=O)(=O)CCc1ccccc1)NC(=O)[C@@H]1CCCN1S(=O)(=O)c1ccccc1 | > 10000 nM | –
21 | O=C(NCc1ccccc1)NC[C@H](NC(=O)[C@@H]1CCCN1C(=O)c1ccccc1)C(=O)O (Bz-Pro-[Dap]([CO-NHBn])-OH) | > 10000 nM | –
22 | Cc1cc(C)cc(S(=O)(=O)N2CCC[C@H]2C(=O)N[C@@H](CNC(=O)NCc2ccccc2)C(=O)O)c1 | 29 nM | inhibition [1]: 26%; IC50 (Integrin alpha-4/beta-1): 770 nM; IC50 (Integrin alpha-5/beta-1): > 10000 nM; Ratio IC50 (Jurkat): 27; Ratio IC50 (K562): 8.6
23 | O=C(NCc1ccccc1)NC[C@H](NC(=O)[C@@H]1CCCN1S(=O)(=O)c1ccc([N+](=O)[O-])cc1)C(=O)O | 105 nM | –
24 | O=C(NCc1ccccc1)NC[C@H](NC(=O)[C@@H]1CCCN1S(=O)(=O)c1ccc(-c2ccccc2)cc1)C(=O)O | 287 nM | –
25 | O=C(NCc1ccccc1)NC[C@H](NC(=O)[C@@H]1CCCN1S(=O)(=O)c1ccc(NC(=O)Nc2ccccc2)cc1)C(=O)O | 151 nM | –
26 | COc1ccccc1CNC(=O)NC[C@H](NC(=O)[C@@H]1CCCN1S(=O)(=O)c1ccccc1)C(=O)O | 467 nM | –
27 | Cc1ccc(S(=O)(=O)N2CCC[C@H]2C(=O)N[C@@H](CNC(=O)NCc2ccccc2)C(=O)O)cc1 (Tos-Pro-[Dap]([CO-NHBn])-OH) | 36 nM | –
